In the first experiment the target is T1, mouse GnRH receptor (Mus musculus, UniProt Q01776).
T1 construct: expressed in transfected cells; host or cells: 293 cells
T1 sequence (Q01776 1-327): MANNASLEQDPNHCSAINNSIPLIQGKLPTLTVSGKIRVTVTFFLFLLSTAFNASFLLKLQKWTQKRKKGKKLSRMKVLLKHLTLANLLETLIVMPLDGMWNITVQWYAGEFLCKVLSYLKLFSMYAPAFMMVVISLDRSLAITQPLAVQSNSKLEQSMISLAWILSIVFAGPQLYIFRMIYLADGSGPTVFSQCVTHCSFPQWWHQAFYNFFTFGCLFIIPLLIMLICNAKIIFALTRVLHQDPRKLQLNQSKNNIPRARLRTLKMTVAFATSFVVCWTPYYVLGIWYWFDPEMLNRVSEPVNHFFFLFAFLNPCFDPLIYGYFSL
Nature of the experiment: Radioligand binding, 125I-GnRH-A, 293 cells expressing mouse GnRH receptors. The settings on record: 1 h, substrate remaining; 10 uM compound; closer to zero = closer to 100% inhibition; read-out: S%R 10 uM mGnRHR. In short, it runs like this:
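Bound label captured on 0.1% polyethyleneimine-treated GF/C filters, washed three times with PBS, counted. IC50 derived; identical set-up for every species.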
Take `Cc1cc2c(cc1Cc1ccc(C(=O)NCC3CCC(C(=O)O)CC3)o1)C(C)(C)CCC2(C)C` (centres unmarked) [Compound 479]: the remaining activity at 10 µM is -3%.
On the same count and under the same terms, the result for `Cc1cc2c(cc1Cc1ccc(C(=O)N3CCN(c4cccc(NCC5CCCO5)n4)CC3)o1)C(C)(C)CCC2(C)C` (centres unmarked) [Compound 480] reads -2%.
Turning to `Cc1cc2c(cc1Cc1ccc(C(=O)NC3CCCCC3Nc3ccnc(NCC4CCCO4)n3)o1)C(C)(C)CCC2(C)C` (centres unmarked) [Compound 481], the remaining activity at 10 µM was 5%.
On the same count and under the same terms, the result for `Cc1cc2c(cc1Cc1ccc(C(=O)NCCc3ccc([N+](=O)[O-])cc3)o1)C(C)(C)CCC2(C)C` [Compound 482] reads 34%; that for `Cc1cc2c(cc1Cc1ccc(C(=O)NCC3CCNCC3)o1)C(C)(C)CCC2(C)C` [Compound 483], 10%.
On the same count and under the same terms, the result for `Cc1cc2c(cc1Cc1ccc(C(=O)NCc3ccc4c(c3)OCO4)o1)C(C)(C)CCC2(C)C` [Compound 484] reads -1%.
On the same count and under the same terms, the result for `Cc1cc2c(cc1Cc1ccc(C(=O)NCCc3ccncc3)o1)C(C)(C)CCC2(C)C` [Compound 485] reads -5%; that for `Cc1cc2c(cc1Cc1ccc(C(=O)NC3CCC(c4nccc(NCC5CCCO5)n4)C3)o1)C(C)(C)CCC2(C)C` (centres unmarked) [Compound 486], 33%; that for `Cc1cc2c(cc1Cc1ccc(C(=O)NCCCCNc3nccc(NCC4CCCO4)n3)o1)C(C)(C)CCC2(C)C` (centres unmarked) [Compound 487], 3%.
For the molecule `Cc1cc2c(cc1Cc1ccc(C(=O)NCCN3CCCCC3)o1)C(C)(C)CCC2(C)C` [Compound 488], the remaining activity at 10 µM is -3%.
On the same count and under the same terms, the result for `COc1ccc(CCNC(=O)c2ccc(Cc3cc4c(cc3C)C(C)(C)CCC4(C)C)o2)cc1OC` [Compound 489] reads -1%.
Still for that read-out and setting: the result for `COc1cc(CNC(=O)c2ccc(Cc3cc4c(cc3C)C(C)(C)CCC4(C)C)o2)cc(OC)c1` [Compound 490] reads 4%; that for `Cc1cc2c(cc1Cc1ccc(C(=O)NCC3CCN(c4nccc(NCC5CCCO5)n4)CC3)o1)C(C)(C)CCC2(C)C` (centres unmarked) [Compound 491], 9%.
Same read-out and setting: the result for `Cc1cc2c(cc1Cc1ccc(C(=O)NCC3CCCC(CNc4nccc(NCC5CCCO5)n4)C3)o1)C(C)(C)CCC2(C)C` (centres unmarked) [Compound 492] reads -7%; that for `COC(=O)CCCCCNC(=O)c1ccc(Cc2cc3c(cc2C)C(C)(C)CCC3(C)C)o1` [Compound 493], -6%.
Take `Cc1cc2c(cc1Cc1ccc(C(=O)NCCCN3CCCCC3C)o1)C(C)(C)CCC2(C)C` (centres unmarked) [Compound 494]: the remaining activity at 10 µM was -7%.
Regarding `COc1cccc(CCNC(=O)c2ccc(Cc3cc4c(cc3C)C(C)(C)CCC4(C)C)o2)c1` [Compound 495], the remaining activity at 10 µM is 4%.
Same read-out and setting: the result for `Cc1cc2c(cc1Cc1ccc(C(=O)NCCCN(C)CCCN)o1)C(C)(C)CCC2(C)C` [Compound 496] reads -6%; that for `Cc1cc2c(cc1Cc1ccc(C(=O)NCc3ccc(C(=O)O)cc3)o1)C(C)(C)CCC2(C)C` [Compound 497], 2%; that for `CNCCCNC(=O)c1ccc(Cc2cc3c(cc2C)C(C)(C)CCC3(C)C)o1` [Compound 498], 58%.
For `Cc1cc2c(cc1Cc1ccc(C(=O)NCC3CN(Cc4ccccc4)CCO3)o1)C(C)(C)CCC2(C)C` (centres unmarked) [Compound 499], the remaining activity at 10 µM was 1%.
As to `Cc1cc2c(cc1Cc1ccc(C(=O)NCc3nc4ccccc4[nH]3)o1)C(C)(C)CCC2(C)C` [Compound 500], the remaining activity at 10 µM was -4%.
Same read-out and setting: the result for `Cc1cc2c(cc1Cc1ccc(C(=O)NCc3ccccn3)o1)C(C)(C)CCC2(C)C` [Compound 501] reads -3%; that for `COc1cc(CNC(=O)c2ccc(Cc3cc4c(cc3C)C(C)(C)CCC4(C)C)o2)cc(OC)c1OC` [Compound 502], -2%; that for `Cc1cc2c(cc1Cc1ccc(C(=O)NCCc3ccc(N)cc3)o1)C(C)(C)CCC2(C)C` [Compound 503], -3%.
Take `Cc1cc2c(cc1Cc1ccc(C(=O)NCCc3cccc(Oc4ccccc4)c3)o1)C(C)(C)CCC2(C)C` [Compound 504]: the remaining activity at 10 µM was found to be 46%.
On the same count and under the same terms, the result for `Cc1cc2c(cc1Cc1ccc(C(=O)NCCCN3CCCCC3)o1)C(C)(C)CCC2(C)C` [Compound 505] reads 7%; that for `COc1cc(CCNC(=O)c2ccc(Cc3cc4c(cc3C)C(C)(C)CCC4(C)C)o2)cc(OC)c1O` [Compound 506], 3%.
On the same count and under the same terms, the result for `Cc1cc2c(cc1Cc1ccc(C(=O)NCCc3ccccn3)o1)C(C)(C)CCC2(C)C` [Compound 507] reads -4%; that for `COc1ccc(OC)c(CCNC(=O)c2ccc(Cc3cc4c(cc3C)C(C)(C)CCC4(C)C)o2)c1` [Compound 508], 7%; that for `Cc1cc2c(cc1Cc1ccc(C(=O)NCCc3c[nH]c4ccc(Cl)cc34)o1)C(C)(C)CCC2(C)C` [Compound 509], 16%.
On the same count and under the same terms, the result for `Cc1cc2c(cc1Cc1ccc(C(=O)NCC(F)(F)F)o1)C(C)(C)CCC2(C)C` [Compound 510] reads 23%; that for `Cc1cc2c(cc1Cc1ccc(C(=O)NCc3cccc(NC(=O)N(Cc4ccccc4)c4ccccc4)c3)o1)C(C)(C)CCC2(C)C` [Compound 511], 47%; that for `Cc1cc2c(cc1Cc1ccc(C(=O)NCCc3ccccc3Oc3ccccc3)o1)C(C)(C)CCC2(C)C` [Compound 512], 51%.
Regarding `Cc1cc2c(cc1Cc1ccc(C(=O)NCCc3c[nH]cn3)o1)C(C)(C)CCC2(C)C` [Compound 513], the remaining activity at 10 µM was determined as 9%.
Same read-out and setting: the result for `Cc1cc2c(cc1Cc1ccc(C(=O)NCCNc3nccc(NCC4CCCO4)n3)o1)C(C)(C)CCC2(C)C` (centres unmarked) [Compound 514] reads 2%; that for `Cc1cc2c(cc1Cc1ccc(C(=O)NCCN3CCCC3)o1)C(C)(C)CCC2(C)C` [Compound 515], 11%; that for `Cc1cc2c(cc1Cc1ccc(C(=O)NCc3ccccc3C(F)(F)F)o1)C(C)(C)CCC2(C)C` [Compound 516], 21%.
The same measure, in the same setting: the result for `Cc1cc2c(cc1Cc1ccc(C(=O)Nc3nc(N(C)C)nc4nc[nH]c34)o1)C(C)(C)CCC2(C)C` [Compound 517] reads 34%; that for `Cc1cc2c(cc1Cc1ccc(C(=O)NCc3cccc4c3OC3C=CC=CC43)o1)C(C)(C)CCC2(C)C` (centres unmarked) [Compound 518], 56%; that for `Cc1cc2c(cc1Cc1ccc(C(=O)NCc3ccc(F)c(F)c3)o1)C(C)(C)CCC2(C)C` [Compound 519], 0%.
For `Cc1cc2c(cc1Cc1ccc(C(=O)NCCN3CCNC3=O)o1)C(C)(C)CCC2(C)C` [Compound 520], the remaining activity at 10 µM was -3%.
The same measure, in the same setting: the result for `Cc1cc2c(cc1Cc1ccc(C(=O)NCc3ccc(S(N)(=O)=O)cc3)o1)C(C)(C)CCC2(C)C` [Compound 521] reads 51%.
For `Cc1cc2c(cc1Cc1ccc(C(=O)NCC3CCN(C(N)N)CC3)o1)C(C)(C)CCC2(C)C` [Compound 522], the remaining activity at 10 µM worked out at 9%.
On the same count and under the same terms, the result for `Cc1cc2c(cc1Cc1ccc(C(=O)NCCN3CCOCC3)o1)C(C)(C)CCC2(C)C` [Compound 523] reads -4%.
Take `Cc1cc2c(cc1Cc1ccc(C(=O)NCCc3ccc(Cl)cc3Cl)o1)C(C)(C)CCC2(C)C` [Compound 524]: the remaining activity at 10 µM was 35%.
Regarding `Cc1cnc(CNC(=O)c2ccc(Cc3cc4c(cc3C)C(C)(C)CCC4(C)C)o2)cn1` [Compound 525], the remaining activity at 10 µM was -9%.
The same measure, in the same setting: the result for `Cc1cc2c(cc1Cc1ccc(C(=O)NCCc3cccc(C(F)(F)F)c3)o1)C(C)(C)CCC2(C)C` [Compound 526] reads 9%.
In the case of `Cc1cc2c(cc1Cc1ccc(C(=O)NCC3Nc4ccccc4N3)o1)C(C)(C)CCC2(C)C` [Compound 529], the remaining activity at 10 µM was -3%.
Still for that read-out and setting: the result for `Cc1cc2c(cc1Cc1ccc(C(=O)NCC3CCN(c4ccnc(Cl)n4)CC3)o1)C(C)(C)CCC2(C)C` [Compound 530] reads -4%.
Regarding `Cc1cc2c(cc1Cc1ccc(C(=O)NCCCO)o1)C(C)(C)CCC2(C)C` [Compound 531], the remaining activity at 10 µM stood at 4%.
Same read-out and setting: the result for `CCN(CC)CCN(C)C(=O)c1ccc(Cc2cc3c(cc2C)C(C)(C)CCC3(C)C)o1` [Compound 532] reads 12%; that for `Cc1cc2c(cc1Cc1ccc(C(=O)NC(C)(C)C)o1)C(C)(C)CCC2(C)C` [Compound 533], 29%; that for `Cc1cc2c(cc1Cc1ccc(C(=O)N(CCN3CCOCC3)Cc3ccccc3)o1)C(C)(C)CCC2(C)C` [Compound 534], 9%.
The same measure, in the same setting: the result for `Cc1cc2c(cc1Cc1ccc(C(=O)N(C)CCC=C3c4ccccc4CCc4ccccc43)o1)C(C)(C)CCC2(C)C` [Compound 535] reads 43%; that for `CCOC(=O)CN(Cc1ccccc1)C(=O)c1ccc(Cc2cc3c(cc2C)C(C)(C)CCC3(C)C)o1` [Compound 536], 38%.
On the same count and under the same terms, the result for `Cc1cc2c(cc1Cc1ccc(C(=O)N3CCN(CCO)CC3)o1)C(C)(C)CCC2(C)C` [Compound 537] reads 32%.
`C=CCN(CC=C)C(=O)c1ccc(Cc2cc3c(cc2C)C(C)(C)CCC3(C)C)o1` [Compound 538]: the remaining activity at 10 µM was determined as 17%.

Staying with this experiment, now noted: substrate remaining; 10 uM compound; closer to zero = closer to 100% inhibition.
Regarding `Cc1cc2c(cc1Cc1ccc(C(=O)NCCc3c[nH]cn3)o1)C(C)(C)CCC2(C)C` [Compound 527], the “S%R 10 uM mGnRHR” value came out at 10%.

These data come from patent US7101878B1 (Agouron Pharmaceuticals, Inc., priority 1998, dated 2006).
